Values of other authors as cited in patent EP4368198A1, “COMPOSITION FOR DELIVERING A PROTEIN OR A POLYPEPTIDE TO A EUKARYOTIC CELL” (Klinikum der Universität München, priority 2022, dated 2024).

Settings: normalized, most hydrophobic residue 100, glycine 0, Monera et al. 1995

- hydrophobicity index At pH 7: -46 (used pH 2)
SMILES: O=C(O)[C@@H]1CCCN1 [Proline (pro), Proline]
